Results taken from the supplement of paper PMC13207355.

Assays:
Settings in all cases: exposure time: 72 h
E13 [1] = patient-derived glioblastoma stem cells of classical subtype; assay: surviving fraction (nuclei count normalised to DMSO); higher = more cells surviving (less toxic)
E21 [2] = patient-derived glioblastoma stem cells of mesenchymal subtype; assay: as above
E28 [3] = patient-derived glioblastoma stem cells of classical subtype; assay: as above
E31 [4] = patient-derived glioblastoma stem cells of proneural subtype; assay: as above
E34 [5] = patient-derived glioblastoma stem cells of proneural subtype; assay: as above
E57 [6] = patient-derived glioblastoma stem cells of mesenchymal subtype; assay: as above
FT3469 [7] = normal neural stem cell line; assay: as above
E13 [8] = assay: phenotypic distance (Euclidean, principal components) from DMSO controls (arbitrary units); higher = stronger morphological change
E21 [9] = assay: as above
E28 [10] = assay: as above
E31 [11] = assay: as above
E34 [12] = assay: as above
E57 [13] = assay: as above
FT3469 [14] = assay: as above
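For phenotypic distance (Euclidean, principal components) from DMSO controls in this document: cell Painting imaging in 384-well plates, CellProfiler features reduced to at least 20 principal components, Euclidean distance versus same-plate DMSO vehicle wells (0.1% v/v), median over six images per well.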
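For surviving fraction (nuclei count normalised to DMSO) in this document: nuclei counted by high-content imaging of Hoechst-stained cells in laminin-coated 384-well plates, relative to 0.1% DMSO vehicle wells, with staurosporine as cell-death control.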

Cn1nnc2c(C(N)=O)ncn2c1=O [Temozolomide]
Settings | phenotypic distance | surviving fraction
E13 [1], 4.1 nM | – | 0.934
E13 [1], 12.3 nM | – | 0.862
E13 [1], 37 nM | – | 0.932
E13 [1], 111.1 nM | – | 0.981
E13 [1], 333.3 nM | – | 0.909
E13 [1], 1000 nM | – | 0.936
E13 [1], 3000 nM | – | 1.04
E13 [8], 4.1 nM | 0.92 | –
E13 [8], 12.3 nM | 0.797 | –
E13 [8], 37 nM | 0.786 | –
E13 [8], 111.1 nM | 0.576 | –
E13 [8], 333.3 nM | 0.8 | –
E13 [8], 1000 nM | 0.525 | –
E13 [8], 3000 nM | 0.666 | –
E21 [2], 4.1 nM | – | 0.919
E21 [2], 12.3 nM | – | 0.974
E21 [2], 37 nM | – | 0.955
E21 [2], 111.1 nM | – | 0.899
E21 [2], 333.3 nM | – | 0.883
E21 [2], 1000 nM | – | 0.988
E21 [2], 3000 nM | – | 0.862
E21 [9], 4.1 nM | 1.04 | –
E21 [9], 12.3 nM | 0.604 | –
E21 [9], 37 nM | 0.561 | –
E21 [9], 111.1 nM | 0.642 | –
E21 [9], 333.3 nM | 1.07 | –
E21 [9], 1000 nM | 0.394 | –
E21 [9], 3000 nM | 0.971 | –
E28 [3], 4.1 nM | – | 0.981
E28 [3], 12.3 nM | – | 0.95
E28 [3], 37 nM | – | 1.11
E28 [3], 111.1 nM | – | 1.02
E28 [3], 333.3 nM | – | 1.06
E28 [3], 1000 nM | – | 0.921
E28 [3], 3000 nM | – | 0.979
E28 [10], 4.1 nM | 0.473 | –
E28 [10], 12.3 nM | 0.496 | –
E28 [10], 37 nM | 0.568 | –
E28 [10], 111.1 nM | 0.62 | –
E28 [10], 333.3 nM | 0.378 | –
E28 [10], 1000 nM | 0.593 | –
E28 [10], 3000 nM | 0.453 | –
E31 [4], 4.1 nM | – | 0.882
E31 [4], 12.3 nM | – | 0.904
E31 [4], 37 nM | – | 0.833
E31 [4], 111.1 nM | – | 1.02
E31 [4], 333.3 nM | – | 1.02
E31 [4], 1000 nM | – | 0.972
E31 [4], 3000 nM | – | 0.803
E31 [11], 4.1 nM | 1.06 | –
E31 [11], 12.3 nM | 2.72 | –
E31 [11], 37 nM | 0.892 | –
E31 [11], 111.1 nM | 0.246 | –
E31 [11], 333.3 nM | 0.629 | –
E31 [11], 1000 nM | 0.411 | –
E31 [11], 3000 nM | 0.89 | –
E34 [5], 4.1 nM | – | 0.988
E34 [5], 12.3 nM | – | 0.89
E34 [5], 37 nM | – | 1.01
E34 [5], 111.1 nM | – | 0.947
E34 [5], 333.3 nM | – | 1.06
E34 [5], 1000 nM | – | 1.02
E34 [5], 3000 nM | – | 1.07
E34 [12], 4.1 nM | 0.82 | –
E34 [12], 12.3 nM | 0.663 | –
E34 [12], 37 nM | 0.714 | –
E34 [12], 111.1 nM | 0.388 | –
E34 [12], 333.3 nM | 0.867 | –
E34 [12], 1000 nM | 0.392 | –
E34 [12], 3000 nM | 0.466 | –
E57 [6], 4.1 nM | – | 0.946
E57 [6], 12.3 nM | – | 0.909
E57 [6], 37 nM | – | 0.95
E57 [6], 111.1 nM | – | 0.958
E57 [6], 333.3 nM | – | 0.951
E57 [6], 1000 nM | – | 0.953
E57 [6], 3000 nM | – | 0.931
E57 [13], 4.1 nM | 0.77 | –
E57 [13], 12.3 nM | 0.543 | –
E57 [13], 37 nM | 0.294 | –
E57 [13], 111.1 nM | 0.599 | –
E57 [13], 333.3 nM | 0.816 | –
E57 [13], 1000 nM | 0.662 | –
E57 [13], 3000 nM | 1.29 | –
FT3469 [7], 4.1 nM | – | 1.01
FT3469 [7], 12.3 nM | – | 0.927
FT3469 [7], 37 nM | – | 1
FT3469 [7], 111.1 nM | – | 0.936
FT3469 [7], 333.3 nM | – | 1.18
FT3469 [7], 1000 nM | – | 0.822
FT3469 [7], 3000 nM | – | 1.04
FT3469 [14], 4.1 nM | 1.43 | –
FT3469 [14], 12.3 nM | 1.01 | –
FT3469 [14], 37 nM | 0.484 | –
FT3469 [14], 111.1 nM | 0.802 | –
FT3469 [14], 333.3 nM | 0.852 | –
FT3469 [14], 1000 nM | 0.793 | –
FT3469 [14], 3000 nM | 0.513 | –
